In ChEMBL document CHEMBL1201862, “PubChem BioAssay data set” (2004):
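Five compound concentrations were applied to cells in 96-well plates for 48 hours; endpoints were derived by simple linear interpolation of the resulting dose-response curve. GI50 = concentration required for 50% inhibition of growth.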 Calls of active or inactive are those of the source. No stated cut-off is given here; in the data, active = GI50 up to about 1.1 µM and inactive = higher.

Key:
Assay in all cases: inhibition of tumour cell growth, NCI panel, 48 h
NCI-H226 = system: NCI-H226
NCI/ADR-RES = system: NCI/ADR-RES
MDA-MB-435 = system: MDA-MB-435
NCI-H23 = system: NCI-H23
NCI-H460 = system: NCI-H460
OVCAR-5 = system: OVCAR-5
HOP-62 = system: HOP-62
IGROV-1 = system: IGROV-1
SF-295 = system: SF-295
SW-620 = system: SW-620
CCRF-CEM = system: CCRF-CEM
SN12C = system: SN12C
UACC-62 = system: UACC-62
HL-60 = system: HL-60
ACHN = system: ACHN
SR = system: SR
SNB-19 = system: SNB-19
786-0 = system: 786-0
PC-3 = system: PC-3
Hs-578T = system: Hs-578T
T47D = system: T47D
OVCAR-3 = system: OVCAR-3
K562 = system: K562
KM12 = system: KM12
MCF7 = system: MCF7
U-251 = system: U-251
RPMI-8226 = system: RPMI-8226
OVCAR-4 = system: OVCAR-4
CAKI-1 = system: CAKI-1
SF-539 = system: SF-539
M14 = system: M14
DU-145 = system: DU-145
SK-MEL-2 = system: SK-MEL-2
SK-MEL-28 = system: SK-MEL-28
HT-29 = system: HT-29
HCT-15 = system: HCT-15
HCT-116 = system: HCT-116
UACC-257 = system: UACC-257
UO-31 = system: UO-31
HOP-92 = system: HOP-92
MOLT-4 = system: MOLT-4
A549 = system: A549
MDA-MB-231 = system: MDA-MB-231
A498 = system: A498
SNB-75 = system: SNB-75
LOX IMVI = system: LOX IMVI
RXF 393 = system: RXF 393
Malme-3M = system: Malme-3M
BT-549 = system: BT-549
MDA-N = system: MDA-N
SK-OV-3 = system: SK-OV-3
COLO 205 = system: COLO 205
OVCAR-8 = system: OVCAR-8
TK-10 = system: TK-10
SF-268 = system: SF-268
SK-MEL-5 = system: SK-MEL-5
EKVX = system: EKVX
NCI-H522 = system: NCI-H522
HCC 2998 = system: HCC 2998

In the case of `COc1ccccc1C[C@@H]1OC2(C=CC(=O)CC2SC(=O)c2ccccc2)O[C@H]1Cc1ccccc1OC` (stereo partly specified), the GI50 (NCI-H226) is reported as 2.08 µM (inactive), the GI50 (NCI/ADR-RES) is reported as 1.46 µM (inactive) and the GI50 (MDA-MB-435) is reported as 1.94 µM (inactive). For the same compound, the GI50 (NCI-H23) was 2.03 µM (inactive), the GI50 (NCI-H460) was 2.44 µM (inactive) and the GI50 (OVCAR-5) was 1.19 µM (inactive). The GI50 (HOP-62) was 1.35 µM (inactive), the GI50 (IGROV-1) was 1.42 µM (inactive) and the GI50 (SF-295) was 1.63 µM (inactive). The GI50 (SW-620) was 0.324 µM (active), the GI50 (CCRF-CEM) was 0.294 µM (active) and the GI50 (SN12C) was 2.52 µM (inactive). The GI50 (UACC-62) was 2.71 µM (inactive), the GI50 (HL-60) was 1.16 µM (inactive) and the GI50 (ACHN) was 1.51 µM (inactive). The GI50 (SR) was 0.308 µM (active), the GI50 (SNB-19) was 1.91 µM (inactive) and the GI50 (786-0) was 0.275 µM (active). The GI50 (PC-3) was 1.88 µM (inactive), the GI50 (Hs-578T) was 1.25 µM (inactive) and the GI50 (T47D) was 1.6 µM (inactive). For the same compound, the GI50 (OVCAR-3) was 1.59 µM (inactive), the GI50 (K562) was 2.51 µM (inactive) and the GI50 (KM12) was 2.48 µM (inactive). The GI50 (MCF7) was 0.363 µM (active), the GI50 (U-251) was 1.44 µM (inactive) and the GI50 (RPMI-8226) was 0.3 µM (active). For the same compound, the GI50 (OVCAR-4) was 1.33 µM (inactive), the GI50 (CAKI-1) was 1.79 µM (inactive) and the GI50 (SF-539) was 1.67 µM (inactive). The GI50 (M14) was 1.56 µM (inactive), the GI50 (DU-145) was 3.78 µM (inactive) and the GI50 (SK-MEL-2) was 1.71 µM (inactive). For the same compound, the GI50 (SK-MEL-28) was 1.75 µM (inactive), the GI50 (HT-29) was 1.65 µM (inactive) and the GI50 (HCT-15) was 1.05 µM. The GI50 (HCT-116) was 0.241 µM (active), the GI50 (UACC-257) was 1.51 µM (inactive) and the GI50 (UO-31) was 1.28 µM (inactive). For the same compound, the GI50 (HOP-92) was 1.64 µM (inactive), the GI50 (MOLT-4) was 0.449 µM (active) and the GI50 (A549) was 2.9 µM (inactive). The GI50 (MDA-MB-231) was 2.64 µM (inactive), the GI50 (A498) was 2.46 µM (inactive) and the GI50 (SNB-75) was 1.78 µM (inactive). The GI50 (LOX IMVI) was 0.582 µM (active), the GI50 (RXF 393) was 0.121 µM (active) and the GI50 (Malme-3M) was 1.77 µM (inactive). The GI50 (BT-549) was 0.318 µM (active), the GI50 (MDA-N) was 1.51 µM (inactive) and the GI50 (SK-OV-3) was 2.17 µM (inactive). The GI50 (COLO 205) was 1.69 µM (inactive), the GI50 (OVCAR-8) was 0.216 µM (active) and the GI50 (TK-10) was 1.54 µM (inactive). The GI50 (SF-268) was 1.02 µM (active) and the GI50 (SK-MEL-5) was 1.62 µM (inactive).

With `COC(=O)C(Cc1ccccc1)NC(=O)C(CCCNC(=N)N)NC(=O)OCc1ccccc1` (stereo unspecified) the GI50 (NCI-H226) was > 100 µM (inactive), the GI50 (NCI/ADR-RES) was > 100 µM (inactive) and the GI50 (MDA-MB-435) was > 100 µM (inactive). For the same compound, the GI50 (NCI-H23) was > 100 µM (inactive), the GI50 (NCI-H460) was > 100 µM (inactive) and the GI50 (OVCAR-5) was > 100 µM (inactive). For the same compound, the GI50 (EKVX) was > 100 µM (inactive), the GI50 (HOP-62) was > 100 µM (inactive) and the GI50 (IGROV-1) was > 100 µM (inactive). For the same compound, the GI50 (SF-295) was > 100 µM (inactive), the GI50 (SW-620) was > 100 µM (inactive) and the GI50 (CCRF-CEM) was > 100 µM (inactive). For the same compound, the GI50 (SN12C) was > 100 µM (inactive), the GI50 (UACC-62) was > 100 µM (inactive) and the GI50 (HL-60) was > 100 µM (inactive). For the same compound, the GI50 (ACHN) was > 100 µM (inactive), the GI50 (SR) was > 100 µM (inactive) and the GI50 (SNB-19) was > 100 µM (inactive). For the same compound, the GI50 (786-0) was > 100 µM (inactive), the GI50 (PC-3) was > 100 µM (inactive) and the GI50 (NCI-H522) was > 100 µM (inactive). The GI50 (Hs-578T) was > 100 µM (inactive), the GI50 (T47D) was > 100 µM (inactive) and the GI50 (OVCAR-3) was > 100 µM (inactive). The GI50 (K562) was > 100 µM (inactive), the GI50 (KM12) was > 100 µM (inactive) and the GI50 (MCF7) was > 100 µM (inactive). For the same compound, the GI50 (U-251) was > 100 µM (inactive), the GI50 (RPMI-8226) was > 100 µM (inactive) and the GI50 (OVCAR-4) was > 100 µM (inactive). The GI50 (CAKI-1) was > 100 µM (inactive), the GI50 (M14) was > 100 µM (inactive) and the GI50 (DU-145) was > 100 µM (inactive). For the same compound, the GI50 (SK-MEL-28) was > 100 µM (inactive), the GI50 (HT-29) was > 100 µM (inactive) and the GI50 (HCT-15) was > 100 µM. The GI50 (HCT-116) was > 100 µM (inactive), the GI50 (UO-31) was > 100 µM (inactive) and the GI50 (HOP-92) was > 100 µM (inactive). The GI50 (MOLT-4) was > 100 µM (inactive), the GI50 (A549) was > 100 µM (inactive) and the GI50 (MDA-MB-231) was > 100 µM (inactive). The GI50 (SNB-75) was > 100 µM (inactive), the GI50 (LOX IMVI) was > 100 µM (inactive) and the GI50 (RXF 393) was > 100 µM (inactive). The GI50 (Malme-3M) was > 100 µM (inactive), the GI50 (BT-549) was > 100 µM (inactive) and the GI50 (MDA-N) was > 100 µM (inactive). The GI50 (SK-OV-3) was > 100 µM (inactive), the GI50 (HCC 2998) was > 100 µM (inactive) and the GI50 (COLO 205) was > 100 µM (inactive). For the same compound, the GI50 (OVCAR-8) was > 100 µM (inactive), the GI50 (TK-10) was > 100 µM (inactive) and the GI50 (SF-268) was > 100 µM (inactive). The GI50 (SK-MEL-5) was > 100 µM (inactive).
